Patent publication US20080096967A1, “Formulations for Injection of Catecholic Butanes, Including Ndga Compounds, Into Animals” (priority 2005, published 2008)

Key:
Beagle dogs = conditions: dog, in vivo
Protocol: A single male dog was administered M4N (12.5 mg/mL) in 20% HP-β-CD/50% PEG 300 via IV infusion (10 mL/kg/hour). Increased pressure in the infusion line and test formulation leakage from the syringe occurred. […] Because the observations were considered severe, the animal was considered moribund and scheduled for euthanization.
The dog recovered within 1 hour and 15 minutes of dosing and presented no continued or additional adverse clinical signs.
An additional male and female were dosed at 150 mg/kg and then at 125 mg/kg. […] Both animals recovered within 1 hour of dosing and no additional important clinical signs were subsequently noted.
Two extra (naïve) dogs were added to the study design and dosed at 75 mg/kg/day at an infusion rate of 5 mL/kg/hour, for a total of 12 doses in a 13-day interval. […] Clinical observations included soft feces in the male and frothy white emesis in the female; these findings were infrequent or isolated incidences and are considered unrelated to treatment. […] Both dogs recovered from any noted clinical signs within 1 hour of dosing. […] No other treatment-related observations were noted.

[1] = Solubility of M4N in water-insoluble lipids (visual inspection); format: physicochemical

COc1ccc(C[C@@H](C)[C@@H](C)Cc2ccc(OC)c(OC)c2)cc1OC [Formulation M4N, meso-1,4-bis(3,4-dimethoxyphenyl)-2,3-dimethylbutane]
clinical signs following dosing (Beagle dogs): uncoordinated/unbalanced movements and frequent urination
notable post dose observation (Beagle dogs): single observation of red-brown urine in the female on SD 7
time to recovery after dosing (Beagle dogs): 1 h and 0.25 h
Stability Time at Room Temperature ([1]; 33% Peppermint Oil, 33% Tween ® 20, 33% PEG 400, M4N 60 mg/mL): >3 days
Dissolution After Heating ([1]; 33% Peppermint Oil, 33% Tween ® 20, 33% PEG 400, M4N 60 mg/mL, 40° C.): Y at 40 °C
Dissolution After Heating ([1]; 40% Peppermint Oil, 40% PEG 400, 20% Glycerol, M4N 52 mg/mL, 40° C.): Y at 40 °C
Dissolution After Heating ([1]; 45% Peppermint Oil, 45% PEG 400, 10% Glycerol, M4N 59 mg/mL, 40° C.): Y at 40 °C
Stability Time at Room Temperature ([1]; 50% Peppermint Oil, 50% PEG 300, M4N 40 mg/mL): >7 days
Dissolution After Heating ([1]; 50% Peppermint Oil, 50% PEG 300, M4N 40 mg/mL, 35° C.): Y at 35 °C
Stability Time at Room Temperature ([1]; 50% Peppermint Oil, 50% PEG 300, M4N 60 mg/mL): >7 days
Dissolution After Heating ([1]; 50% Peppermint Oil, 50% PEG 300, M4N 60 mg/mL, 35° C.): Y at 35 °C
Dissolution After Heating ([1]; 50% Peppermint Oil, 50% PEG 300, M4N 125 mg/mL, 35° C.): Y at 35 °C
Stability Time at Room Temperature ([1]; 50% Peppermint Oil, 50% PEG 400, M4N 40 mg/mL): >7 days
Dissolution After Heating ([1]; 50% Peppermint Oil, 50% PEG 400, M4N 40 mg/mL, 40° C.): Y at 40 °C
Stability Time at Room Temperature ([1]; 50% Peppermint Oil, 50% PEG 400, M4N 60 mg/mL): >7 days
Dissolution After Heating ([1]; 50% Peppermint Oil, 50% PEG 400, M4N 60 mg/mL, 40° C.): Y at 40 °C
Dissolution After Heating ([1]; 50% Peppermint Oil, 50% PEG 400, M4N 100 mg/mL, 40° C.): Y at 40 °C
Dissolution After Heating ([1]; 50% Peppermint Oil, 50% PEG 400, M4N 125 mg/mL, 40° C.): Y at 40 °C
Stability Time at Room Temperature ([1]; 50% Peppermint Oil, 50% Sesame Oil, M4N 20 mg/mL): >3 days
Stability Time at Room Temperature ([1]; 50% Peppermint Oil, 50% Sesame Oil, M4N 40 mg/mL): >3 days
Dissolution After Heating ([1]; 50% Peppermint Oil, 50% Sesame Oil, M4N 40 mg/mL, 40° C.): Y at 40 °C
Stability Time at Room Temperature ([1]; 50% Peppermint Oil, 50% Sesame Oil, M4N 60 mg/mL): >3 days
Dissolution After Heating ([1]; 50% Peppermint Oil, 50% Sesame Oil, M4N 60 mg/mL, 40° C.): Y at 40 °C
Stability Time at Room Temperature ([1]; 50% Peppermint Oil, 50% Tween ® 20, M4N 40 mg/mL): >3 days
Dissolution After Heating ([1]; 50% Peppermint Oil, 50% Tween ® 20, M4N 40 mg/mL, 40° C.): Y at 40 °C
Stability Time at Room Temperature ([1]; 50% Peppermint Oil, 50% Tween ® 20, M4N 60 mg/mL): >3 days
Dissolution After Heating ([1]; 50% Peppermint Oil, 50% Tween ® 20, M4N 60 mg/mL, 40° C.): Y at 40 °C
Dissolution After Heating ([1]; 50% Peppermint Oil, 50% Tween ® 20, M4N 125 mg/mL, 40° C.): Y at 40 °C
Stability Time at Room Temperature ([1]; 60% Peppermint Oil, 40% PEG 300, M4N 60 mg/mL): >3 days
Dissolution After Heating ([1]; 60% Peppermint Oil, 40% PEG 300, M4N 60 mg/mL, 40° C.): Y at 40 °C
Dissolution After Heating ([1]; 60% Peppermint Oil, 40% PEG 400, M4N 60 mg/mL, 40° C.): Y at 40 °C
Stability Time at Room Temperature ([1]; 75% Sesame Oil, 9% Tween ® 20, 16% Glycerol, M4N 24.3 mg/mL): <7 days
Dissolution After Heating ([1]; 75% Sesame Oil, 9% Tween ® 20, 16% Glycerol, M4N 24.3 mg/mL, 60° C.): Y at 60 °C
Dissolution After Heating ([1]; 80% Olive Oil, 20% Soybean Oil, M4N 60 mg/mL, 70° C.): Y at 70 °C
Dissolution After Heating ([1]; 85% Sesame Oil, 15% Tween ® 20, M4N 40 mg/mL, 45° C.): Y at 45 °C
Dissolution After Heating ([1]; 85% Sesame Oil, 15% Tween ® 20, M4N 60 mg/mL, 55° C.): Y at 55 °C
solution upon cooling ([1]; 85% sesame oil and 15% Tween® 20, M4N 60 mg/mL (55° C.) and 40 mg/mL (45° C.)): did not stay in solution
Stability Time at Room Temperature ([1]; 89% Sesame Oil, 11% Tween ® 20, M4N 29 mg/mL): >7 days
Dissolution After Heating ([1]; 89% Sesame Oil, 11% Tween ® 20, M4N 29 mg/mL, 60° C.): Y at 60 °C
Stability Time at Room Temperature ([1]; 100% Corn Oil, M4N 1 mg/mL): >3 days
Dissolution After Heating ([1]; 100% Corn Oil, M4N 1 mg/mL, 60° C.): Y at 60 °C
Stability Time at Room Temperature ([1]; 100% Corn Oil, M4N 10 mg/mL): >3 days
Dissolution After Heating ([1]; 100% Corn Oil, M4N 10 mg/mL, 60° C.): Y at 60 °C
Stability Time at Room Temperature ([1]; 100% Corn Oil, M4N 20 mg/mL): <3 days
Dissolution After Heating ([1]; 100% Corn Oil, M4N 20 mg/mL, 60° C.): Y at 60 °C
Stability Time at Room Temperature ([1]; 100% Corn Oil, M4N 40 mg/mL): <3 days
Dissolution After Heating ([1]; 100% Corn Oil, M4N 40 mg/mL, 60° C.): Y at 60 °C
Stability Time at Room Temperature ([1]; 100% Corn Oil, M4N 50 mg/mL): <3 days
Dissolution After Heating ([1]; 100% Corn Oil, M4N 50 mg/mL, 60° C.): Y at 60 °C
Stability Time at Room Temperature ([1]; 100% Corn Oil, M4N 60 mg/mL): <1 days
